Earlier results as cited in PubChem BioAssay AID1259409 (Chemical Carcinogenesis Research Information System (CCRIS), 2018).

System: rodent chemically induced tumor inhibition, incidence and multiplicity
Test: CCRIS tumor inhibitor studies

Structure (SMILES): C[C@H]1O[C@@H](O[C@H]2[C@@H](O)C[C@H](O[C@H]3[C@@H](O)C[C@H](O[C@H]4CC[C@@]5(C)[C@H](CC[C@@H]6[C@@H]5CC[C@]5(C)[C@@H](C7=CC(=O)OC7)CC[C@]65O)C4)O[C@@H]3C)O[C@@H]2C)C[C@H](O)[C@@H]1O
- tumour outcome (control, treated, inhibition, significance) (Carcinogen: 4-NITROQUINOLINE-N-OXIDE, 56-57-5, Dose [Inhibitor]: 0, 0.25 MG/100 ML IN DRINKING WATER FOR 20 WK BEGINNING 5 WK POST CARCINOGEN DOSE (STUDY DURATION: 25 WK), Route [Inhibitor]: ORAL, Species: MOUSE, Strain/Sex: ICR/FEMALE, Target Tissue: Type of Lesion: LUNG: TUMOR, Dose [Carcinogen]: 0.3 MG ONCE, Promoter: GLYCEROL, 56-81-5): 100%, 53%, 47%, not calculated
- tumour outcome (control, treated, inhibition, significance) (Carcinogen: 7,12-DIMETHYLBENZ[A]ANTHRACENE, 57-97-6, Dose [Inhibitor]: 0, 85 NMOL IN ACETONE 2/WK 1 HR PRIOR TO EACH PROMOTER DOSE FOR 20 WK (STUDY DURATION: 21 WK), Route [Inhibitor]: DERMAL, Species: MOUSE, Strain/Sex: ICR/FEMALE, Target Tissue: Type of Lesion: SKIN: PAPILLOMA, Dose [Carcinogen]: 100 UG IN ACETONE ONCE, Promoter: 12-O-TETRADECANOYLPHORBOL-13-ACETATE, 16561-29-8): 100%, 80%, 20%, not calculated

Structure (SMILES): CC(C)CC(CN[C@@H](CC(C)C)C(N)=O)NC(=O)[C@H](Cc1cnc[nH]1)NC(=O)CNC(=O)[C@@H](NC(=O)C(C)NC(=O)[C@H](Cc1c[nH]c2ccccc12)NC(=O)[C@H](CCC(N)=O)NC(=O)[C@H]1Cc2c([nH]c3ccccc23)CN1)C(C)C (some centres not stated)
- tumour outcome (control, treated, inhibition, significance) (Carcinogen: N-NITROSOBIS(2-OXOPROPYL)AMINE, 60599-38-4, Dose [Inhibitor]: 0, 5 UG/D FROM OSMOTIC PUMP FOR 2 MO, Route [Inhibitor]: SUBCUTANEOUS IMPLANT, Species: HAMSTER, Strain/Sex: SYRIAN/FEMALE, Target Tissue: Type of Lesion: PANCREAS: ADENOCARCINOMA): 10/11 (91%), 7/11 (64%), 30%, not calculated
- tumour outcome (control, treated, inhibition, significance) (Carcinogen: N-NITROSOBIS(2-OXOPROPYL)AMINE, 60599-38-4, Dose [Inhibitor]: 0, 20 UG/D BEGINNING 18 WK POST CARCINOGEN TREATMENT AND CONTINUING FOR 8 WK (STUDY DURATION: 32 WK), Route [Inhibitor]: SUBCUTANEOUS, Species: HAMSTER, Strain/Sex: SYRIAN/FEMALE, Target Tissue: Type of Lesion: PANCREAS: ADENOCARCINOMA, Dose [Carcinogen]: TREATMENT FOR 6 WK (DOSE NOT STATED), Promoter: NONE USED): 12/12 (100%), 9/12 (75%), 25%, not significant
- tumour outcome (control, treated, inhibition, significance) (Carcinogen: N-NITROSOBIS(2-OXOPROPYL)AMINE, 60599-38-4, Dose [Inhibitor]: 0, 20 UG/D FROM OSMOTIC PUMP FOR 2 MO, Route [Inhibitor]: SUBCUTANEOUS IMPLANT, Species: HAMSTER, Strain/Sex: SYRIAN/FEMALE, Target Tissue: Type of Lesion: PANCREAS: ADENOCARCINOMA, Promoter: NONE USED): 12/12 (100%), 6/12 (50%), 50%, not calculated
- tumour outcome (control, treated, inhibition, significance) (Carcinogen: N-NITROSOBIS(2-OXOPROPYL)AMINE, 60599-38-4, Dose [Inhibitor]: 0, 30 UG/D BEGINNING 18 WK POST CARCINOGEN TREATMENT AND CONTINUING FOR 8 WK (STUDY DURATION: 32 WK), Route [Inhibitor]: SUBCUTANEOUS, Species: HAMSTER, Strain/Sex: SYRIAN/FEMALE, Target Tissue: Type of Lesion: PANCREAS: ADENOCARCINOMA, Dose [Carcinogen]: TREATMENT FOR 6 WK (DOSE NOT STATED), Promoter: NONE USED): 11/12 (92%), 8/12 (67%), 27%, not significant
- tumour outcome (control, treated, inhibition, significance) (Carcinogen: N-NITROSOBIS(2-OXOPROPYL)AMINE, 60599-38-4, Dose [Inhibitor]: 0, 30 UG/D FOR 2 MO, Route [Inhibitor]: SUBCUTANEOUS, Species: HAMSTER, Strain/Sex: SYRIAN/FEMALE, Target Tissue: Type of Lesion: PANCREAS: ADENOCARCINOMA): 11/13 (85%), 12/13 (92%), -8%, not calculated
- tumour outcome (control, treated, inhibition, significance) (Carcinogen: N-NITROSOBIS(2-OXOPROPYL)AMINE, 60599-38-4, Dose [Inhibitor]: 0, 60 UG/D BEGINNING 18 WK POST CARCINOGEN TREATMENT AND CONTINUING FOR 8 WK (STUDY DURATION: 32 WK), Route [Inhibitor]: SUBCUTANEOUS, Species: HAMSTER, Strain/Sex: SYRIAN/FEMALE, Target Tissue: Type of Lesion: PANCREAS: ADENOCARCINOMA, Dose [Carcinogen]: TREATMENT FOR 6 WK (DOSE NOT STATED), Promoter: NONE USED): 12/12 (100%), 2/12 (17%), 83%, p<0.01

Structure (SMILES): CC(C)(Sc1cc(C(C)(C)C)c(O)c(C(C)(C)C)c1)Sc1cc(C(C)(C)C)c(O)c(C(C)(C)C)c1
- tumour outcome (control, treated, inhibition, significance) (Carcinogen: BENZO[A]PYRENE, 50-32-8, Dose [Inhibitor]: 0, 0.06% IN DIET FOR DURATION OF STUDY BEGINNING 2 WK PRIOR TO CARCINOGEN DOSE (STUDY DURATION: 25 WK), Route [Inhibitor]: ORAL, Species: MOUSE, Strain/Sex: STRAIN-A/FEMALE, Target Tissue: Type of Lesion: FORESTOMACH: TUMOR, Dose [Carcinogen]: 1 MG IN 0.2 ML OLIVE OIL 2/WK FOR 4 WK, Promoter: NONE USED): 15/15 (100%), 13/13 (100%), 0%, not significant
- tumour outcome (control, treated, inhibition, significance) (Carcinogen: BENZO[A]PYRENE, 50-32-8, Dose [Inhibitor]: 0, 0.06% IN DIET FOR DURATION OF STUDY BEGINNING 2 WK PRIOR TO CARCINOGEN DOSE (STUDY DURATION: 25 WK), Route [Inhibitor]: ORAL, Species: MOUSE, Strain/Sex: STRAIN-A/FEMALE, Target Tissue: Type of Lesion: LUNG: ADENOMA, Dose [Carcinogen]: 1 MG IN 0.2 ML OLIVE OIL 2/WK FOR 4 WK, Promoter: NONE USED): 15/15 (100%), 13/13 (100%), 0%, not significant
- tumour outcome (control, treated, inhibition, significance) (Carcinogen: BENZO[A]PYRENE, 50-32-8, Dose [Inhibitor]: 0, 1% IN DIET FOR DURATION OF STUDY BEGINNING 2 WK PRIOR TO CARCINOGEN DOSE (STUDY DURATION: 25 WK), Route [Inhibitor]: ORAL, Species: MOUSE, Strain/Sex: STRAIN-A/FEMALE, Target Tissue: Type of Lesion: FORESTOMACH: TUMOR, Dose [Carcinogen]: 1 MG IN 0.2 ML OLIVE OIL 2/WK FOR 4 WK, Promoter: NONE USED): 15/15 (100%), 15/15 (100%), 0%, not significant
- tumour outcome (control, treated, inhibition, significance) (Carcinogen: BENZO[A]PYRENE, 50-32-8, Dose [Inhibitor]: 0, 1% IN DIET FOR DURATION OF STUDY BEGINNING 2 WK PRIOR TO CARCINOGEN DOSE (STUDY DURATION: 25 WK), Route [Inhibitor]: ORAL, Species: MOUSE, Strain/Sex: STRAIN-A/FEMALE, Target Tissue: Type of Lesion: LUNG: ADENOMA, Dose [Carcinogen]: 1 MG IN 0.2 ML OLIVE OIL 2/WK FOR 4 WK, Promoter: NONE USED): 15/15 (100%), 15/15 (100%), 0%, not significant
- outcome (Carcinogen: N,N-diethylnitrosamine, 55-18-5, Dose [Inhibitor]: 1% in diet through study, dose and study duration 24 wk, Route [Inhibitor]: Oral, Species: Mouse, Strain/Sex: ddy/Male, Target Tissue: Type of Lesion: Kidney, Dose [Carcinogen]: 100 mg/kg bw, Promoter: Ferric nitrilotriacetate, 16448-54-7): 14/20 (70%), 4/20 (20%)

Structure (SMILES): O=S(=O)([O-])[O-].O=S(=O)([O-])[O-].O=S(=O)([O-])[O-].[Fe+3].[Fe+3]
- tumour outcome (control, treated, inhibition, significance) (Dose [Inhibitor]: 0, 15.5 UMOL (FE) INJECTED WITH CARCINOGEN INTO THIGH OF BOTH HIND LIMBS (STUDY DURATION: 79 WK), Route [Inhibitor]: INTRAMUSCULAR, Species: RAT, Strain/Sex: F344/MALE, Target Tissue: Type of Lesion: INJECTION SITE: SARCOMA, Dose [Carcinogen]: 2.5 MG PER SITE INJECTED INTO THIGH OF BOTH HIND LIMBS ONCE, Promoter: NONE USED): 100%, 98%, 2%, not significant
- tumour outcome (control, treated, inhibition, significance) (Dose [Inhibitor]: 0, 30 UMOL (FE) INJECTED WITH CARCINOGEN INTO THIGH OF BOTH HIND LIMBS (STUDY DURATION: 79 WK), Route [Inhibitor]: INTRAMUSCULAR, Species: RAT, Strain/Sex: F344/MALE, Target Tissue: Type of Lesion: INJECTION SITE: SARCOMA, Dose [Carcinogen]: 2.5 MG PER SITE INJECTED INTO THIGH OF BOTH HIND LIMBS ONCE, Promoter: NONE USED): 100%, 45%, 55%, not calculated
- tumour outcome (control, treated, inhibition, significance) (Dose [Inhibitor]: 0, 60 UMOL (FE) INJECTED INTO NAPE OF NECK (STUDY DURATION: 79 WK), Route [Inhibitor]: SUBCUTANEOUS, Species: RAT, Strain/Sex: F344/MALE, Target Tissue: Type of Lesion: INJECTION SITE: SARCOMA, Dose [Carcinogen]: 2.5 MG PER SITE INJECTED INTO THIGH OF BOTH HIND LIMBS, Promoter: NONE USED): 100%, 100%, 0%, not significant
- tumour outcome (control, treated, inhibition, significance) (Dose [Inhibitor]: 0, 60 UMOL (FE) INJECTED WITH CARCINOGEN INTO THIGH OF BOTH HIND LIMBS (STUDY DURATION: 79 WK), Route [Inhibitor]: INTRAMUSCULAR, Species: RAT, Strain/Sex: F344/MALE, Target Tissue: Type of Lesion: INJECTION SITE: SARCOMA, Dose [Carcinogen]: 2.5 MG PER SITE INJECTED INTO THIGH OF BOTH HIND LIMBS ONCE, Promoter: NONE USED): 100%, 35%, 65%, not calculated
